Source: patent US20230181564A1, “Potent Tetrahydroquinolone Eliminates Apicomplexan Parasites” (The University of Chicago, priority 2020, published 2023)

Experiments:
[1] = system: Human Foreskin Fibroblast (HFF); assay: Cytotoxicity assay with WST-1 on HFF; assay type: cell-based
Procedure: PBS Sol/Toxicity pH7.4 refers to solubility of the compound in Phosphate Buffered Saline (PBS) at pH7.4. […] Tachy/Brady IC50 was determined in studies in which cultures of parasites in HFF were treated with varying concentrations of the compound and there was 50% inhibition of the replication (number) of parasites. Parasites were RH-YFP expressing tachyzoites (Tachy) and EGS (Brady) strains. Studies of effects of inhibitors on HFF or on T.gondii tachyzoites were performed with triplicate wells in at least two biological replicate experiments. Studies of effects on bradyzoites were performed at least twice in at least two biological replicate experiments. Compounds with much less inhibition of mammalian than T. gondii cytochrome bc in the saffarine enzyme assay (indicated by **) provide potential to further develop compounds, if unanticipated toxicity occurs from JAG21.
Cytotoxicity Assays in parallel with RH Strain T.gondii in vitro studies. Toxicity assays used WST-1 cell proliferation reagent (Roche) as in Fomovska et al. (2012). HFF were grown on a flat, clear-bottomed, black 96-well plate. Confluent HFF were treated with inhibitory compounds at concentrations of 10 μM and 50 μM. Compounds were diluted in IMDM-C, and 20 μL were added to each designated well, with triplicates for each condition. A gradient with 2 fold-decreasing concentrations of DMSO from 10% to 0% in colorless, translucent IMDM-C was used as a control. The plate was incubated for 72 hours at 37° C. 10 μL WST-1 reagent (Roche) were added to each well. Cells were incubated for 30-60 minutes. Absorbance was read using a fluorimeter at 420 nm. A higher degree of color change (and absorbance) indicated mitochondrial activity and cell viability.
Because T. gondii grows inside cells, if a compound were toxic to host HFF then it would make the compound appear to be spuriously effective (Fomovska et al. 2012; Fomovska et al. 2012a), when in actuality only toxicity for the host cell would be measured. Cytotoxicity to HFF was therefore assessed for all compounds at 10 μM. Results of this experiment are in Table 1, toxicity column. A two-way ANOVA and subsequent pairwise comparison found none of the differences in absorbance, compared to the media-DMSO vehicle controls, to be statistically significant (p>0.05). Most of these compounds are not toxic at 10 μM (the limit of solubility) and that cytotoxicity to cells can be attributed to DMSO in the solution, not the compound.

[2] = system: T. gondii mitochondrial membrane potential (cytochrome bc); assay: Mitochondrial membrane potential by the safranine method (T. gondii, compared with HFF); assay type: cell-based, Toxoplasma gondii; details: permeabilized tachyzoites, safranin O
Procedure: T.gondii and HFF Mitochondrial Membrane Potential Measurements—the mitochondrial membrane potential was measured by the safranine method according to Vercesi et al, 1998). Freshly egressed T. gondii tachyzoites were filtered and washed twice with intracellular buffer (125 mM sucrose, 65 mM KCl, 10 mM HEPES-KOH buffer, pH 7.2, 1 mM MgCl2 and 2.5 mM potassium phosphate). After washing, the parasites were resuspended in the same buffer at 10^9/ml. An aliquot of 50 μL of this suspension was added to a cuvette containing Safranin 0, 2.5 μM and Succinate 1 mM in final volume of 2 mL of the intracellular buffer. The fluorescence was measured with a Hitachi 7000 spectrofluorometer with setting Ex. 495/Em. 586. Once the baseline fluorescence is testable, 30 μM digitonin was added to permeabilize the parasites. 85 seconds after permeabilization, the THQ derivatives, dissolved in DMSO, were added. 5 μM of FCCP (Carbonyl cyanide-4-(trifluoromethoxy) phenylhydrazone) was used as an uncoupler reference for calculations and its effect was considered 100%. Similar conditions for measuring the mitochondrial potential of mammalian cells were used with the following changes: the mammalian cells were re-suspended at 10^8/ml. 50 μl of mammalian cells was also used for each run in a cuvette with […]. The substrate used for mammalian cells was 5 mM glutamate and 5 mM malate. A higher concentration of digitonin (50 μM) was used to permeabilize the mammalian cells. The compounds were added at about 400 seconds after permeabilization. Each experiment was repeated at least three times in duplicates. Statistical analysis, unpaired student t test, was performed using GraphPad Prism 8.0 (GraphPad Software, Inc., San Diego, Calif.).
Mitochondrial membrane potential measurements were performed with permeabilized T.gondii tachyzoites in suspension using safranin O, which loads into polarized membranes. T. gondii tachyzoites were permeabilized with digitonin to allow the mitochondrial substrate succinate to cross the membrane and energize the mitochondrion. The fluorescence of safranin O, which loads into energized mitochondria was used to measure the membrane potential. The energized state of the mitochondrion is observed by a decrease in fluorescence (FIGS. 3A,C,E). Trifluoromethoxy carbonylcyanide phenylhydrazone (FCCP) was used to depolarize the membrane, which causes the fluorescence to go up as shown in FIG. 3A. JAG21 depolarized the membrane potential even at concentrations as low as 2 nM (FIG. 3C,D). JAG21 and Atovaquone had similar effects on the mitochondrial membrane potential (FIG. 3D). […] The effect of these THQ compounds against the T. gondii mitochondrial membrane potential was greater than the effect on the human foreskin fibroblast membrane potential (FIG. 3E,F). […]

[3] = system: T. gondii (Prugneaud strain expressing luciferase) tachyzoites; assay: Acute infection with Prugneaud luciferase tachyzoites in Balb/C mice (IVIS, brain cysts); assay type: in vivo, Toxoplasma gondii
Procedure: IVIS. Balb/C mice were infected intraperitoneally (IP) with 20×10^3 T. gondii (Prugneaud strain expressing luciferase) tachyzoites. Treatment began 2 hours later with JAG21 (5 mg/kg) which was dissolved in DMSO, administered IP in a total volume of 0.05 ml. Mice were imaged every second day starting on day 4 post infection using an IVIS Spectrum (Caliper Life Sciences) for […], with medium binning, 20 minutes post injection with 150 mg/kg of D-luciferin potassium salt solution.
Brain cysts. Brain cysts were searched for in paraffin imbedded tissue of the surviving Prugneaud strain infected treated Balb/C mice in the IVIS study, 30 days after infection which was 16 days after treatment had been discontinued. All treated mice had survived. There were no surviving untreated mice in those experiments.

Cc1[nH]c2c(c(=O)c1-c1ccc(Oc3ccc(OC(F)(F)F)cc3)cc1)CCCC2 [JAG021, 2-methyl-3-(4-(4-(trifluoromethoxy)phenoxy)phenyl)-5,6,7,8-tetrahydroquinolin-4-one]
Toxicity to human cells in the in vitro model (HFF) [1]: not toxic | Concentration depolarizing the T. gondii mitochondrial membrane potential [2]: ≤ 2 nM | Luciferase tachyzoites in luminescence studies ([3]; 5 mg/kg/day IP): eliminates illness and T. gondii Type II Prugneaud luciferase tachyzoites completely | Cysts in brains ([3]; 5 mg/kg/day for 14 days from start of infection, brains evaluated at 30 days): no cysts being found | Survival of infected mice ([3]; Balb/C mice, JAG21 5 mg/kg IP for 14 days): 100%
